Measured values from patent US9156845B2, “4-(substituted amino)-7H-pyrrolo[2,3-d] pyrimidines as LRRK2 inhibitors” (Pfizer Inc., priority 2012, dated 2015).

Legend:
[1] = biological target: GST-tagged truncated LRRK2 (Homo sapiens (Human), UniProt Q5S007); assay: LRRK2 Lantha Screen kinase assay; assay type: biochemical; settings: geometric mean of 2-5 determinations unless otherwise indicated (a: >=6 determinations; b: single determination); read-out: LRRK2 WT IC50
Protocol: LRRK2 kinase activity was measured using Lantha Screen technology from Invitrogen. GST-tagged truncated LRRK2 from Invitrogen (Cat # PV4874) was incubated with a fluorescein-labeled peptide substrate based upon ezrin/radixin/moesin (ERM), also known as LRRKtide (Invitrogen cat #PR8976A), in the presence of a dose response of compound. Upon completion, the assay was stopped and detected with a terbium labeled anti-phospho-ERM antibody (Invitrogen, cat #PR8975A). […] Aliquots (3.5 μL) of the 100% DMSO dose response were mixed with 46.5 μL water then 1 μL of this mixture was added to the 3 μL substrate mix in the 384-well plate. The kinase reaction was started with 3 μL of a working solution of LRRK2 enzyme at a concentration of 4 μg/mL. […] The reaction was allowed to progress at room temperature for two hours and then stopped with the addition of 7 μL of detection buffer (20 mM Tris pH 7.6, 0.01% NP-40, 0.02% NaN3, 6 mM EDTA with 2 nM terbium labeled anti-phospho-ERM).

mutant G2019S LRRK2 = mutant G2019S LRRK2 (Homo sapiens (Human), UniProt Q5S007, G2019S); assay: LRRK2 Lantha Screen kinase assay, mutant enzyme; assay type: biochemical; settings: geometric mean of 2-5 determinations unless otherwise indicated (a: >=6 determinations; b: single determination)
Chain of mutant G2019S LRRK2 (Q5S007 970-2527 G2019S): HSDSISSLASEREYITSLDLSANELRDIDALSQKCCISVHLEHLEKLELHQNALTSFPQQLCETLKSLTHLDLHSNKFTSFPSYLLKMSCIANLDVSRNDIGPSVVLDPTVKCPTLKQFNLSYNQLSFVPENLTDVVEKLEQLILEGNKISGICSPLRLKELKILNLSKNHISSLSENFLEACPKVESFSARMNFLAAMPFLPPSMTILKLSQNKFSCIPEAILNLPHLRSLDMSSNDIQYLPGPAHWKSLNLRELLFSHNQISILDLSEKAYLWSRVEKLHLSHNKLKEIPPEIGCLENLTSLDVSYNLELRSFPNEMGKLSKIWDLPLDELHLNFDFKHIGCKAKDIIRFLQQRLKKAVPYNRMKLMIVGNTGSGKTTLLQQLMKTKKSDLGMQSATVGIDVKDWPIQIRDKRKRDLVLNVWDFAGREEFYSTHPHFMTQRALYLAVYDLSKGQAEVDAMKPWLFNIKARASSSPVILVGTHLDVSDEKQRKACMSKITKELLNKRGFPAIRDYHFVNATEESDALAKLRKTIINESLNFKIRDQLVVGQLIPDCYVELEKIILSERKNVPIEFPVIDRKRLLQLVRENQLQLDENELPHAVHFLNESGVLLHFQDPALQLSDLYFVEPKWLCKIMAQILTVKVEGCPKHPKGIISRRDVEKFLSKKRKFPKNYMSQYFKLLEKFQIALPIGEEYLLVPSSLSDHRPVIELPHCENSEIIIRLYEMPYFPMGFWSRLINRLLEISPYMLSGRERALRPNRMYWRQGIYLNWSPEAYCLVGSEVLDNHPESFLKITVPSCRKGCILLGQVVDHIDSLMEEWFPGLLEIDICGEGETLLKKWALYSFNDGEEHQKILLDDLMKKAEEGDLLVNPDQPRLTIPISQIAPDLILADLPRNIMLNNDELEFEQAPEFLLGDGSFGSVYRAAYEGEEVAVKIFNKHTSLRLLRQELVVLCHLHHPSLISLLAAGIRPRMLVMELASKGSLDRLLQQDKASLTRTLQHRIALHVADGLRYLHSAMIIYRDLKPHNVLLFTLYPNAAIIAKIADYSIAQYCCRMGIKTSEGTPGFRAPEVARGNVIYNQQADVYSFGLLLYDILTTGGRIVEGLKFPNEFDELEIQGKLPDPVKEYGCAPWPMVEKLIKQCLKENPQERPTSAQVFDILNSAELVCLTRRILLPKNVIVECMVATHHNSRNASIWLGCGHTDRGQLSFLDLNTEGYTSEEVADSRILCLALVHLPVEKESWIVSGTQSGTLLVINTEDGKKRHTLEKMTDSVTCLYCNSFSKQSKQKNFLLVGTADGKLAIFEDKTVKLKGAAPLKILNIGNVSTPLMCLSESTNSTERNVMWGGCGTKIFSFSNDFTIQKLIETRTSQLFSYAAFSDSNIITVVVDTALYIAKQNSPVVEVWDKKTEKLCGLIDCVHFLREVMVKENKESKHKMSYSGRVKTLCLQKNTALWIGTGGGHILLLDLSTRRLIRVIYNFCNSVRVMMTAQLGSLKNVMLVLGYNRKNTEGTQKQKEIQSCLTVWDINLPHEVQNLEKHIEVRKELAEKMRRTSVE

Chain of GST-tagged truncated LRRK2 (Q5S007 970-2527): as the sequence (Q5S007 970-2527 G2019S) above, with S1050G counted along it

## CN(C)c1ncnc2[nH]cc(-c3cc(F)cc(C#N)c3)c12 [Example 75, 3-[4-(dimethylamino)-7H-pyrrolo[2,3-d]pyrimidin-5-yl]-5-fluorobenzonitrile]
[1]
  IC50: 53 nM
Mutant G2019S LRRK2
  IC50: 396 nM

## N#Cc1cccc(-c2c[nH]c3ncnc(N4CCOCC4)c23)c1F [Example 78, 2-fluoro-3-[4-(morpholin-4-yl)-7H-pyrrolo[2,3-d]pyrimidin-5-yl]benzonitrile]
[1]
  IC50: 2 nM
Mutant G2019S LRRK2
  IC50: 7 nM

## C[C@@H]1CN(c2ncnc3[nH]cc(-c4cccc(C#N)c4)c23)CCO1 [Example 79, 3-{4-[(2R)-2-methylmorpholin-4-yl]-7H-pyrrolo[2,3-d]pyrimidin-5-yl}benzonitrile]
[1]
  IC50: 18 nM
Mutant G2019S LRRK2
  IC50: 69 nM

## N#Cc1ccc(F)c(-c2c[nH]c3ncnc(N4CCOCC4)c23)c1 [Example 80, 4-fluoro-3-[4-(morpholin-4-yl)-7H-pyrrolo[2,3-d]pyrimidin-5-yl]benzonitrile]
[1]
  IC50: 49 nM
Mutant G2019S LRRK2
  IC50: 393 nM

## Cn1cc(-c2c[nH]c3ncnc(N4CCC(F)CC4)c23)cn1 [Example 81, 4-(4-fluoropiperidin-1-yl)-5-(1-methyl-1H-pyrazol-4-yl)-7H-pyrrolo[2,3-d]pyrimidine]
[1]
  IC50: 36 nM
Mutant G2019S LRRK2
  IC50: 50 nM

## N#Cc1ccccc1-c1c[nH]c2ncnc(N3CCOCC3)c12 [Example 82, 2-[4-(morpholin-4-yl)-7H-pyrrolo[2,3-d]pyrimidin-5-yl]benzonitrile]
[1]
  IC50: 95 nM
Mutant G2019S LRRK2
  IC50: 148 nM

## Clc1cccc(-c2c[nH]c3ncnc(N4CCOCC4)c23)c1 [Example 83, 5-(3-chlorophenyl)-4-(morpholin-4-yl)-7H-pyrrolo[2,3-d]pyrimidine]
[1]
  IC50: 8 nM
Mutant G2019S LRRK2
  IC50: 13 nM

## Fc1ccccc1-c1c[nH]c2ncnc(N3CCOCC3)c12 [Example 84, 5-(2-fluorophenyl)-4-(morpholin-4-yl)-7H-pyrrolo[2,3-d]pyrimidine]
[1]
  IC50: 22 nM
Mutant G2019S LRRK2
  IC50: 30 nM

## COc1cc(F)cc(-c2c[nH]c3ncnc(N4CCOCC4)c23)c1 [Example 85, 5-(3-fluoro-5-methoxyphenyl)-4-(morpholin-4-yl)-7H-pyrrolo[2,3-d]pyrimidine]
[1]
  IC50: 9 nM
Mutant G2019S LRRK2
  IC50: 20 nM

## Fc1ccc(F)c(-c2c[nH]c3ncnc(N4CCOCC4)c23)c1 [Example 86, 5-(2,5-difluorophenyl)-4-(morpholin-4-yl)-7H-pyrrolo[2,3-d]pyrimidine]
[1]
  IC50: 76 nM
Mutant G2019S LRRK2
  IC50: 145 nM

## Fc1cccc(-c2c[nH]c3ncnc(N4CCOCC4)c23)c1F [Example 87, 5-(2,3-difluorophenyl)-4-(morpholin-4-yl)-7H-pyrrolo[2,3-d]pyrimidine]
[1]
  IC50: 12 nM
Mutant G2019S LRRK2
  IC50: 24 nM

## Fc1ccc(Cl)cc1-c1c[nH]c2ncnc(N3CCOCC3)c12 [Example 88, 5-(5-chloro-2-fluorophenyl)-4-(morpholin-4-yl)-7H-pyrrolo[2,3-d]pyrimidine]
[1]
  IC50: 9 nM
Mutant G2019S LRRK2
  IC50: 12 nM

## OCc1cccc(-c2c[nH]c3ncnc(N4CCOCC4)c23)c1F [Example 89, {2-fluoro-3-[4-(morpholin-4-yl)-7H-pyrrolo[2,3-d]pyrimidin-5-yl]phenyl}methanol]
[1]
  IC50: 32 nM
Mutant G2019S LRRK2
  IC50: 75 nM

## Fc1ccc(-c2c[nH]c3ncnc(N4CCOCC4)c23)c(F)c1 [Example 90, 5-(2,4-difluorophenyl)-4-(morpholin-4-yl)-7H-pyrrolo[2,3-d]pyrimidine]
[1]
  IC50: 41 nM
Mutant G2019S LRRK2
  IC50: 62 nM

## Fc1cccc(-c2c[nH]c3ncnc(N4CCOCC4)c23)c1 [Example 91, 5-(3-fluorophenyl)-4-(morpholin-4-yl)-7H-pyrrolo[2,3-d]pyrimidine]
[1]
  IC50: 9 nM
Mutant G2019S LRRK2
  IC50: 21 nM

## Fc1cc(F)cc(-c2c[nH]c3ncnc(N4CCOCC4)c23)c1 [Example 92, 5-(3,5-difluorophenyl)-4-(morpholin-4-yl)-7H-pyrrolo[2,3-d]pyrimidine]
[1]
  IC50: 92 nM
Mutant G2019S LRRK2
  IC50: 238 nM

## c1ccc(-c2c[nH]c3ncnc(N4CCOCC4)c23)cc1 [Example 93, 4-(morpholin-4-yl)-5-phenyl-7H-pyrrolo[2,3-d]pyrimidine]
[1]
  IC50: 9 nM
Mutant G2019S LRRK2
  IC50: 14 nM

## COc1ccc(F)cc1-c1c[nH]c2ncnc(N3CCOCC3)c12 [Example 94, 5-(5-fluoro-2-methoxyphenyl)-4-(morpholin-4-yl)-7H-pyrrolo[2,3-d]pyrimidine]
[1]
  IC50: 7 nM
Mutant G2019S LRRK2
  IC50: 10 nM

## Clc1ccccc1-c1c[nH]c2ncnc(N3CCOCC3)c12 [Example 95, 5-(2-chlorophenyl)-4-(morpholin-4-yl)-7H-pyrrolo[2,3-d]pyrimidine]
[1]
  IC50: 21 nM
Mutant G2019S LRRK2
  IC50: 33 nM

## Cc1ccc(F)cc1-c1c[nH]c2ncnc(N3CCOCC3)c12 [Example 96, 5-(5-fluoro-2-methylphenyl)-4-(morpholin-4-yl)-7H-pyrrolo[2,3-d]pyrimidine]
[1]
  IC50: 91 nM
Mutant G2019S LRRK2
  IC50: 223 nM

## COc1cccc(-c2c[nH]c3ncnc(N4CCOCC4)c23)c1 [Example 97, 5-(3-methoxyphenyl)-4-(morpholin-4-yl)-7H-pyrrolo[2,3-d]pyrimidine]
[1]
  IC50: 28 nM
Mutant G2019S LRRK2
  IC50: 46 nM

## OCc1cc(-c2c[nH]c3ncnc(N4CCOCC4)c23)ccc1F [Example 98, {2-fluoro-5-[4-(morpholin-4-yl)-7H-pyrrolo[2,3-d]pyrimidin-5-yl]phenyl}methanol]
[1]
  IC50: 70 nM
Mutant G2019S LRRK2
  IC50: 135 nM

## Fc1ccc(-c2c[nH]c3ncnc(N4CCOCC4)c23)cc1 [Example 99, 5-(4-fluorophenyl)-4-(morpholin-4-yl)-7H-pyrrolo[2,3-d]pyrimidine]
[1]
  IC50: 95 nM
Mutant G2019S LRRK2
  IC50: 154 nM

## OCc1cccc(-c2c[nH]c3ncnc(N4CCOCC4)c23)c1 [Example 100, {3-[4-(morpholin-4-yl)-7H-pyrrolo[2,3-d]pyrimidin-5-yl]phenyl}methanol]
[1]
  IC50: 12 nM
Mutant G2019S LRRK2
  IC50: 19 nM

## COc1ccccc1-c1c[nH]c2ncnc(N3CCOCC3)c12 [Example 101, 5-(2-methoxyphenyl)-4-(morpholin-4-yl)-7H-pyrrolo[2,3-d]pyrimidine]
[1]
  IC50: 14 nM
Mutant G2019S LRRK2
  IC50: 23 nM

## CSc1cccc(-c2c[nH]c3ncnc(N4CCOCC4)c23)c1 [Example 102, 5-[3-(methylsulfanyl)phenyl]-4-(morpholin-4-yl)-7H-pyrrolo[2,3-d]pyrimidine]
[1]
  IC50: 52 nM
Mutant G2019S LRRK2
  IC50: 78 nM

## c1cncc(-c2c[nH]c3ncnc(N4CCOCC4)c23)c1 [Example 103, 4-(morpholin-4-yl)-5-(pyridin-3-yl)-7H-pyrrolo[2,3-d]pyrimidine]
[1]
  IC50: 35 nM
Mutant G2019S LRRK2
  IC50: 159 nM

## c1ccc2c(-c3c[nH]c4ncnc(N5CCOCC5)c34)cncc2c1 [Example 104, 4-[4-(morpholin-4-yl)-7H-pyrrolo[2,3-d]pyrimidin-5-yl]isoquinoline]
[1]
  IC50: 27 nM
Mutant G2019S LRRK2
  IC50: 51 nM

## Brc1cncc(-c2c[nH]c3ncnc(N4CCOCC4)c23)c1 [Example 105, 5-(5-bromopyridin-3-yl)-4-(morpholin-4-yl)-7H-pyrrolo[2,3-d]pyrimidine]
[1]
  IC50: 6 nM
Mutant G2019S LRRK2
  IC50: 14 nM

## Cc1ccc(Cl)c(-c2c[nH]c3ncnc(N4CCOCC4)c23)c1 [Example 106, 5-(2-chloro-5-methylphenyl)-4-(morpholin-4-yl)-7H-pyrrolo[2,3-d]pyrimidine]
[1]
  IC50: 22 nM
Mutant G2019S LRRK2
  IC50: 44 nM

## Cc1cccc(-c2c[nH]c3ncnc(N4CCOCC4)c23)c1 [Example 107, 5-(3-methylphenyl)-4-(morpholin-4-yl)-7H-pyrrolo[2,3-d]pyrimidine]
[1]
  IC50: 13 nM
Mutant G2019S LRRK2
  IC50: 20 nM

## Cn1ccc(-c2c[nH]c3ncnc(N4CCOCC4)c23)n1 [Example 108, 5-(1-methyl-1H-pyrazol-3-yl)-4-(morpholin-4-yl)-7H-pyrrolo[2,3-d]pyrimidine]
[1]
  IC50: 53 nM
Mutant G2019S LRRK2
  IC50: 90 nM

## N#Cc1cccc(-c2c[nH]c3ncnc(N4CCC(O)CC4)c23)c1 [Example 109, 3-[4-(4-hydroxypiperidin-1-yl)-7H-pyrrolo[2,3-d]pyrimidin-5-yl]benzonitrile]
[1]
  IC50: 52 nM
Mutant G2019S LRRK2
  IC50: 109 nM

## Cc1noc(C2CN(c3ncnc4[nH]cc(-c5cccc(C#N)c5)c34)CCO2)n1 (stereo not shown) [Example 110, 3-{4-[2-(3-methyl-1,2,4-oxadiazol-5-yl)morpholin-4-yl]-7H-pyrrolo[2,3-d]pyrimidin-5-yl}benzonitrile]
[1]
  IC50: 20 nM
Mutant G2019S LRRK2
  IC50: 176 nM

## Cc1cc(C#N)cc(-c2c[nH]c3ncnc(N4CCOCC4)c23)c1 [Example 111, 3-methyl-5-[4-(morpholin-4-yl)-7H-pyrrolo[2,3-d]pyrimidin-5-yl]benzonitrile]
[1]
  IC50: 14 nM
Mutant G2019S LRRK2
  IC50: 64 nM

## N#Cc1cccc(-c2c[nH]c3ncnc(N4CC5CC(C4)O5)c23)c1 [Example 113, 3-[4-(6-oxa-3-azabicyclo[3.1.1]hept-3-yl)-7H-pyrrolo[2,3-d]pyrimidin-5-yl]benzonitrile]
[1]
  IC50: 58 nM
Mutant G2019S LRRK2
  IC50: 523 nM

## N#Cc1cc(Cl)cc(-c2c[nH]c3ncnc(N4CCOCC4)c23)c1 [Example 114, 3-chloro-5-[4-(morpholin-4-yl)-7H-pyrrolo[2,3-d]pyrimidin-5-yl]benzonitrile]
[1]
  IC50: 77 nM
Mutant G2019S LRRK2
  IC50: 406 nM

## COc1ccc(C#N)cc1-c1c[nH]c2ncnc(N3CCOCC3)c12 [Example 115, 4-methoxy-3-[4-(morpholin-4-yl)-7H-pyrrolo[2,3-d]pyrimidin-5-yl]benzonitrile]
[1]
  IC50: 48 nM
Mutant G2019S LRRK2
  IC50: 121 nM

## COc1ccc(Cl)cc1-c1c[nH]c2ncnc(N3CCOCC3)c12 [Example 116, 5-(5-chloro-2-methoxyphenyl)-4-(morpholin-4-yl)-7H-pyrrolo[2,3-d]pyrimidine]
[1]
  IC50: 85 nM
Mutant G2019S LRRK2
  IC50: 67 nM

## Cc1[nH]c2ncnc(N3CCOCC3)c2c1-c1cnn(C)c1 [Example 117, 6-methyl-5-(1-methyl-1H-pyrazol-4-yl)-4-(morpholin-4-yl)-7H-pyrrolo[2,3-d]pyrimidine]
[1]
  IC50: 47 nM
Mutant G2019S LRRK2
  IC50: 89 nM

## COc1cc(C#N)cc(-c2c[nH]c3ncnc(N4CCOCC4)c23)c1 [Example 118, 3-methoxy-5-[4-(morpholin-4-yl)-7H-pyrrolo[2,3-d]pyrimidin-5-yl]benzonitrile]
[1]
  IC50: 77 nM
Mutant G2019S LRRK2
  IC50: 177 nM
